The values below come from patent US8501446B2 (Vertex Pharmaceuticals Incorporated, priority 2004, dated 2013).

Common to all, as to type: biochemical
One assay has as its target T1, ROCK I (AA 6-553) (Homo sapiens, UniProt Q13464).
T1 construct: ROCK I (AA 6-553)
As to the kind of experiment: ROCK inhibition assay, standard coupled enzyme system ("Enzyme"). The note with it: enzyme-linked assay. Summed up: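 ROCK I (AA 6-553) at 45 nM and 30 °C with 45 μM ATP and 200 μM peptide, in 100 mM HEPES pH 7.5, 10 mM MgCl2, 25 mM NaCl, 2 mM DTT, 1.5% DMSO. ADP output read by a PK/LDH coupled system: 2.5 mM PEP, 350 μM NADH, 30 μg/ml PK, 10 μg/ml LDH.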

Assay [1] concerns the target T2, full length Aurora-A (AA 1-403) (Homo sapiens, UniProt O14965).
T2 construct: full length Aurora-A (AA 1-403)
T2 sequence (O14965 1-403): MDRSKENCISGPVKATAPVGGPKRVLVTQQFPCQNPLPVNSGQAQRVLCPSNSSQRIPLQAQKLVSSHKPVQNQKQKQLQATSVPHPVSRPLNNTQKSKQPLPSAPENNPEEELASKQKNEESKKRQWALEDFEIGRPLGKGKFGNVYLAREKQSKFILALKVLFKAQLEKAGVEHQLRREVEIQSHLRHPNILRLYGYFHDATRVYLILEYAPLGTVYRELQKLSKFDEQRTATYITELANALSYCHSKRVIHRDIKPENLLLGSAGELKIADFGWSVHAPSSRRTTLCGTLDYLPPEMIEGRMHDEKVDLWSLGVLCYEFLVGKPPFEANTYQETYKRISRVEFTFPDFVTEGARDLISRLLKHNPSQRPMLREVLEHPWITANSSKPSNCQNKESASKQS
The assay is described as follows: Aurora-A inhibition assay, standard coupled enzyme system. As to conditions: average Ki if more than one value determined.

Another assay has as its target T3, Aurora-C (Homo sapiens, UniProt Q9UQB9).
T3 sequence (Q9UQB9 1-309): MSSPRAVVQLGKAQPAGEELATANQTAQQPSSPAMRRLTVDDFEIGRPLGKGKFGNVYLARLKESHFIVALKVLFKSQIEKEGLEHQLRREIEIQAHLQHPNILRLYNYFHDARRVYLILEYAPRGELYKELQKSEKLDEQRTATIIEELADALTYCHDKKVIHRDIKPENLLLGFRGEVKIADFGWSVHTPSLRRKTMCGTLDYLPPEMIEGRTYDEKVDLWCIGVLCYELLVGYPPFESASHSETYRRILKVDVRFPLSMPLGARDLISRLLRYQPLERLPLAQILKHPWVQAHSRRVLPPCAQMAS
As to the kind of experiment: Aurora-C inhibition assay, coupled enzyme system as for Aurora-A. The note with it: average Ki if more than one value determined. As for the experimental part: Compounds were screened for their ability to inhibit full length Aurora-A (AA 1-403) activity using a standard coupled enzyme system (Fox et al., Protein Sci. 7, pp. 2249 (1998)). Reactions were carried out in a solution containing 100 mM HEPES (pH 7.5), 10 mM MgCl2, 25 mM NaCl, 300 μM NADH, 1 mM DTT and 3% DMSO. Final substrate concentrations in the assay were 200 μM ATP (Sigma Chemicals, St Louis, Mo.) and 800 μM peptide (LRRASLG, American Peptide, Sunnyvale, Calif.). Reactions were carried out at 30° C. and 35 nM Aurora-A. Final concentrations of the components of the coupled enzyme system were 2.5 mM phosphoenolpyruvate, 200 μM NADH, 60 μg/ml pyruvate kinase and 20 μg/ml lactate dehydrogenase.
An assay stock buffer solution was prepared containing all of the reagents listed above with the exception of ATP and the test compound of interest. The assay stock buffer solution (60 μl) was incubated in a 96 well plate with 2 μl of the test compound of interest at final concentrations spanning 0.002 μM to 30 μM at 30° C. for 10 min. Typically, a 12 point titration was conducted by preparing serial dilutions (from 1 mM compound stocks) with DMSO of the test compounds in daughter plates. The reaction was initiated by the addition of 5 μl of ATP (final concentration 200 μM). Rates of reaction were obtained using a Molecular Devices Spectramax plate reader (Sunnyvale, Calif.) over 10 min at 30° C. The Ki values were determined from the rate data as a function of inhibitor concentration using computerized nonlinear regression (Prism 3.0, Graphpad Software, San Diego, Calif.). Aurora-C activity was screened in a similar manner using Aurora-C protein. Aurora-B activity was screened using a radioactive assay, such as described in Examples 1 and 2, but using Aurora-B protein.

A further assay deals with Aurora-B (Homo sapiens, UniProt Q96GD4). As to the kind of experiment: Aurora-B inhibition assay, radioactive assay. As to conditions: average Ki if more than one value determined. The method, boiled down:
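Radiometric [γ-33P]ATP kinase assay run as described for JAK3/ROCK but with Aurora-B protein; 33P incorporation into substrate measured by filter capture and scintillation counting after TCA quench. Background-subtracted data fit to give Ki(app).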

The target in a further assay is T4, JAK3 (Homo sapiens, UniProt P52333).
T4 sequence (P52333 1-1124): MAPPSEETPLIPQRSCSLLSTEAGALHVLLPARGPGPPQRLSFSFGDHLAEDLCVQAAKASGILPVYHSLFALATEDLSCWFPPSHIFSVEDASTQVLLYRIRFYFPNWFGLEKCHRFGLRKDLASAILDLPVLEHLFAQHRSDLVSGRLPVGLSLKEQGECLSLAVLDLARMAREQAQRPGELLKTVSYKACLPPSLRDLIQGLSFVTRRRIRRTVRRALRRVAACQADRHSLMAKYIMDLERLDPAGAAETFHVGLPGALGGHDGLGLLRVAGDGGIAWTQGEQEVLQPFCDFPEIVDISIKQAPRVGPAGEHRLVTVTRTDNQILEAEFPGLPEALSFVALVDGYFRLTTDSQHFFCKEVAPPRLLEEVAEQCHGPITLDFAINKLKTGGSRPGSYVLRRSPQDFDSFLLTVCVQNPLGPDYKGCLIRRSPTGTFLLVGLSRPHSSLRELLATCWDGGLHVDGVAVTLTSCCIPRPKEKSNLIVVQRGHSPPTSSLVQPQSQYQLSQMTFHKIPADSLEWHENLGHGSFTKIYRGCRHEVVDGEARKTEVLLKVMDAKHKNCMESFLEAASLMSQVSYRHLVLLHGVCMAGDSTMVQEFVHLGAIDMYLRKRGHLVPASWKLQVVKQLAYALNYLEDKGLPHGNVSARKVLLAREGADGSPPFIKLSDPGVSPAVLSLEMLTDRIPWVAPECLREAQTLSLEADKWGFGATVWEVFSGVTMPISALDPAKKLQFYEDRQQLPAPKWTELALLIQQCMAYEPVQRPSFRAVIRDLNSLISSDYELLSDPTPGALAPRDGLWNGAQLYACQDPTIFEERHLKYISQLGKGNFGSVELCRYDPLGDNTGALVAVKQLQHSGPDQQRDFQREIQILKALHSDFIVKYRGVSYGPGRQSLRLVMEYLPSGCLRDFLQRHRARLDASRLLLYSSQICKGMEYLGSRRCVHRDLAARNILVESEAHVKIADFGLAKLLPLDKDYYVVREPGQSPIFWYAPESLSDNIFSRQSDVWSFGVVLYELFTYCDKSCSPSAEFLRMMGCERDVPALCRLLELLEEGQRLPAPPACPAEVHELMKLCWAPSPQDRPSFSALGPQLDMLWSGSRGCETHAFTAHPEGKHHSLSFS
As to the kind of experiment: JAK3 inhibition assay (standard radioactive enzyme assay). As to conditions: average Ki if more than one value determined.

Where only a bound is given, the exact number is not on record here.

T1 sequence (Q13464 6-553, species assumed): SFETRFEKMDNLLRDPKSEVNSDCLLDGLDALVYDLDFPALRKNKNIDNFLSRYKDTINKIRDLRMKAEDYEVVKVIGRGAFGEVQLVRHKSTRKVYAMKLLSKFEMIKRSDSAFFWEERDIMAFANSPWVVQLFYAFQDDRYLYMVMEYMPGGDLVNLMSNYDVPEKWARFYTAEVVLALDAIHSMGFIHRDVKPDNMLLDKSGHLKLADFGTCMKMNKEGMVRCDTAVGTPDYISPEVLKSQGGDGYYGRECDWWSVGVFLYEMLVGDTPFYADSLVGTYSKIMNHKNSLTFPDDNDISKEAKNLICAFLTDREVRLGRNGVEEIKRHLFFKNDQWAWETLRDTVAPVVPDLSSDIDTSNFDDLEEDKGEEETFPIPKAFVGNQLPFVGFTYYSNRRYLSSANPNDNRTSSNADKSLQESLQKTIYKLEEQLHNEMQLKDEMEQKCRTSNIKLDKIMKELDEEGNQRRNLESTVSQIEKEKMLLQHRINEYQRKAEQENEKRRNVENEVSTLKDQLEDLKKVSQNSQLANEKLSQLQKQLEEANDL
Aurora-B, sequence (Q96GD4 whole entry): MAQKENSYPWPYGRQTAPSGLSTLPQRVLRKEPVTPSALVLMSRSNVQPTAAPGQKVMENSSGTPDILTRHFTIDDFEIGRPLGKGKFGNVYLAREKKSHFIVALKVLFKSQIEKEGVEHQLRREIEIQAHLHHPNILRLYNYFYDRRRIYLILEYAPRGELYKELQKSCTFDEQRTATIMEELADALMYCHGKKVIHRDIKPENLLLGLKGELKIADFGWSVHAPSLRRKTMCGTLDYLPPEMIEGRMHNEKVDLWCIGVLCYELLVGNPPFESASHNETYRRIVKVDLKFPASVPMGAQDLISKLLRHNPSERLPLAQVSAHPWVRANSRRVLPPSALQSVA

As usually defined, the Ki is the equilibrium dissociation constant of an inhibitor or competing ligand from its target. Consider `C[C@H](Nc1cc(C(=O)O)nc(-c2c[nH]c3ncc(Cl)cc23)n1)c1ccc(F)cc1` [Compound 323], for which the Ki on ROCK I (AA 6-553) is 500 to 5000 nM; in assay [1], under 500 nM; on Aurora-C, under 500 nM; at Aurora-B it was under 500 nM.
Take `Fc1cnc(-c2c[nH]c3ncc(Cl)cc23)nc1NCC1CCCCC1` [Compound 349]: the Ki at ROCK I (AA 6-553) is 500 to 5000 nM; in assay [1] it was under 500 nM; on Aurora-C, under 500 nM; at Aurora-B, under 500 nM.
In the case of `C[C@H](Nc1nc(-c2c[nH]c3ncc(Cl)cc23)ncc1F)C(=O)NCCNC(=O)OCc1ccccc1` [Compound 458], the Ki (in assay [1]; on Aurora-C; on Aurora-B) was under 500 nM each time.
Take `CCS(=O)(=O)NCCNC(=O)[C@H](C)Nc1nc(-c2c[nH]c3ncc(Cl)cc23)ncc1F` [Compound 445]: the Ki is under 500 nM in assay [1], under 500 nM on Aurora-C and 500 to 5000 nM at Aurora-B.
Regarding `CCSCCNC(=O)[C@H](C)Nc1nc(-c2c[nH]c3ncc(Cl)cc23)ncc1F` [Compound 447], the inhibitory constant (Ki) at ROCK I (AA 6-553) was 500 to 5000 nM; in assay [1], under 500 nM; at Aurora-C, 500 to 5000 nM; at Aurora-B it was 500 to 5000 nM.
In the case of `C[C@H](Nc1nc(-c2c[nH]c3ncc(Cl)cc23)ncc1F)C(=O)NCCN` [Compound 431], the inhibitory constant (Ki) on ROCK I (AA 6-553) is 500 to 5000 nM; in assay [1], under 500 nM; at Aurora-C it was under 500 nM; on Aurora-B, under 500 nM.
With `Fc1cnc(-c2c[nH]c3ncc(Cl)cc23)nc1NCC1CCNC1` (stereo not shown) [Compound 329], the Ki (at ROCK I (AA 6-553); in assay [1]; at Aurora-C; at Aurora-B) was under 500 nM throughout.
In the case of `Fc1cnc(-c2c[nH]c3ncc(Cl)cc23)nc1NCC1CCCCN1` (stereo not shown) [Compound 325], the Ki at ROCK I (AA 6-553) was 500 to 5000 nM; in assay [1] it was under 500 nM; on Aurora-C, under 500 nM; on Aurora-B it was under 500 nM.
With `Fc1cnc(-c2c[nH]c3ncc(Cl)cc23)nc1NC1CCCCC1` [Compound 356], the Ki was 500 to 5000 nM at ROCK I (AA 6-553), under 500 nM in assay [1], under 500 nM at Aurora-C and under 500 nM at Aurora-B.
As to `C[C@H](Nc1nc(-c2c[nH]c3ncc(Cl)cc23)ncc1C#N)C(=O)NCC(F)(F)F` [Compound 420], the Ki on ROCK I (AA 6-553) is 500 to 5000 nM; in assay [1], under 500 nM; on Aurora-C it was under 500 nM; on Aurora-B, under 500 nM.
As to `Fc1cnc(-c2c[nH]c3ncc(Cl)cc23)nc1NCC1CCCNC1` (stereo not shown) [Compound 326], the Ki (at ROCK I (AA 6-553); in assay [1]; on Aurora-C; on Aurora-B) was under 500 nM throughout.
As to `C[C@H](Nc1nc(-c2c[nH]c3ncc(Cl)cc23)ncc1F)C1CCCCC1` [Compound 355], the Ki was 500 to 5000 nM on ROCK I (AA 6-553), under 500 nM in assay [1], under 500 nM at Aurora-C and under 500 nM at Aurora-B.
As to `C[C@H](Nc1nc(-c2c[nH]c3ncc(Cl)cc23)ncc1C(=O)O)c1ccc(F)cc1` [Compound 370], the Ki at ROCK I (AA 6-553) is 500 to 5000 nM; in assay [1] it was under 500 nM; on Aurora-C, under 500 nM; at Aurora-B, under 500 nM.
On to `Fc1cnc(-c2c[nH]c3ncc(Cl)cc23)nc1NCc1ccc(Cl)cc1` [Compound 238], for which the Ki on ROCK I (AA 6-553) is 500 to 5000 nM; in assay [1] it was under 500 nM; at Aurora-C, under 500 nM; on Aurora-B, under 500 nM.
Regarding `Clc1ccc(CNc2cccc(-c3c[nH]c4ncc(Cl)cc34)n2)cc1` [Compound 242], the Ki is 500 to 5000 nM on ROCK I (AA 6-553), under 500 nM in assay [1], under 500 nM on Aurora-C and 500 to 5000 nM on Aurora-B.
Take `Fc1cnc(-c2c[nH]c3ncc(Cl)cc23)nc1NC1CCOCC1` [Compound 348]: the Ki is 500 to 5000 nM on ROCK I (AA 6-553), under 500 nM in assay [1], under 500 nM at Aurora-C and under 500 nM on Aurora-B.
`CC[C@H](Nc1nc(-c2c[nH]c3ncc(Cl)cc23)ncc1F)C(=O)NC` [Compound 361]: the Ki at ROCK I (AA 6-553) was 500 to 5000 nM; in assay [1], under 500 nM; at Aurora-C, under 500 nM; at Aurora-B, under 500 nM.
In the case of `C[C@H](Nc1cc(CO)nc(-c2c[nH]c3ncc(Cl)cc23)n1)c1ccc(F)cc1` [Compound 339], the Ki is 500 to 5000 nM on ROCK I (AA 6-553), under 500 nM in assay [1], under 500 nM on Aurora-C and under 500 nM on Aurora-B.
For `Fc1cnc(-c2c[nH]c3ncc(Cl)cc23)nc1NCc1cccc(Cl)c1` [Compound 312], the Ki on ROCK I (AA 6-553) was 500 to 5000 nM; in assay [1] it was under 500 nM; on Aurora-C, under 500 nM; at Aurora-B it was under 500 nM.
`CNC(=O)[C@@H](Nc1nc(-c2c[nH]c3ncc(Cl)cc23)ncc1F)C(C)C` [Compound 362]: the Ki on ROCK I (AA 6-553) was 500 to 5000 nM; in assay [1], under 500 nM; on Aurora-C, under 500 nM; on Aurora-B it was under 500 nM.
As for `C[C@H](Nc1nc(-c2c[nH]c3ncc(Cl)cc23)ncc1F)C(=O)NCCC#N` [Compound 461], the Ki (in assay [1]; at Aurora-C; on Aurora-B) was under 500 nM in each case.
`C[C@H](Nc1nc(-c2c[nH]c3ncc(Cl)cc23)ncc1F)C(=O)NCCO` [Compound 391]: the Ki at JAK3 was under 500 nM; on ROCK I (AA 6-553) it was 500 to 5000 nM; in assay [1] it was under 500 nM; at Aurora-C it was under 500 nM.
